We go through seven compounds from patent publication US20190381014A1, “ISOQUINOLINONE COMPOUNDS AND USE THEREOF IN PREPARATION OF ANTIVIRAL DRUGS” (Ginkgo Pharma Co., Ltd., priority 2016, published 2019).

For one data set, the system named is HBsAg. Briefly: HBsAg inhibition in HepG2.2.15 culture supernatant (ELISA). Type of data set: cell-based, HBV. As to conditions: Hepatitis B virus, HepG2.2.15, 192 h, read-out: Activity in HBsAg inhibition, EC50. The protocol: Test method: HepG2.2.15 cell line was seeded into 96-well plates at 1.5×10^4 cells/well. On the following day, the cells were treated with a three-fold serial dilution series of the compounds at eight concentration points, and 2 duplicate wells were determined in parallel. The final DMSO concentration in the culture solution was 0.5%. On the fifth day, the culture solution was replaced with fresh solution containing the compounds. On the eighth day, the culture supernatant was collected and the HBsAg in the culture supernatant was detected by ELISA. The percent inhibition was calculated with respect to the blank control.
On the technique in general: An ELISA detects its analyte on a solid surface through an enzyme-linked reagent.

Data set [1] in a line: Rat PK study (single IV and PO dose, plasma LC-MS/MS). The format is in vivo, S-D rats. As to conditions: for F / AUC(0-t) / clearance / half-life / Vd / Cmax / Tmax: S-D rats; for F: PO 10 mg/kg vs IV 2 mg/kg; for AUC(0-t) / clearance / half-life / Vd / Cmax / Tmax: Sprague-Dawley (S-D), rat, plasma; for Vd: read-out: Vdss; for PK properties (overall judgement): combining PK data of IV and PO. As to the method: Preparation of intravenous injection formulation: accurately weighing 2-3 mg of a sample, adding appropriate amount of N,N-dimethylacetamide (DMA), vortex oscillating to completely dissolve the solid matter; adding an appropriate volume of 30% Solutol HS-15 aqueous solution, vortex oscillating and then adding saline, so that DMA: 30% Solutol HS-15:saline=20:20:60 (v/v/v), vortex oscillating the liquid to mix the liquid evenly, and filtering to obtain a pharmaceutical preparation of a concentration of 0.4 mg·mL^−1.
Preparation of oral formulation: accurately weighing 10 mg of a sample, adding an appropriate volume of 0.5% CMC-Na aqueous solution, vortex oscillating and ultrasounding to mix the liquid evenly to obtain a pharmaceutical preparation of a concentration of 1 mg·mL^−1.
The formulations were freshly prepared on the day of administration, and samples were reserved and taken for the determination of the actual concentration.
S-D rats of Group A were given a single intravenous injection (IV) of 2 mg·kg^−1, respectively; S-D rats of Group B were given a single gavage administration (PO) of 10 mg·kg^−1, respectively. Approximately 0.15 mL of blood sample will was collected via jugular vein into EDTA-K2 tubes at the designated time points of pre-dose, and 5 min (IV only), 15 min, 30 min, 1 h, 2 h, 4 h, 8 h, 12 h and 24 h post dose. All of the whole blood samples were centrifuged for 10 min (at 5500 rpm) to obtain plasma samples, which were stored at a refrigerator below −30˜−10° C. Concentrations of compounds in the plasma samples were analyzed using a LC-MS/MS method. The pharmacokinetic parameters were calculated using non-compartment model in Pharsight Phoenix 7.0 software. See Tables 2a and 2b for the results.

The term EC50 denotes the concentration needed to bring the measured effect to its halfway point. A word on the AUC(0-t): it is exposure summed from dosing to a finite time, without extrapolation to infinity. A low value points to low exposure. One may read the half-life as the time needed for the level to fall by half in the phase considered. A higher half-life goes with slow loss. In general, Cmax refers to the maximum level reached in the sampled fluid or tissue. Broadly, the Tmax is the time from dosing to the highest level.

On to `COCCCOc1cc2c(cc1OC)-c1cc(=O)c(C(=O)O)cn1[C@H](C(C)C)C2` [A, reference compound], for which the half-maximal effective concentration (EC50) with HBsAg is 4.06 nM. The same compound registered a F in data set [1] of 21.5%. Further, in data set [1] (IV 2 mg/kg), the exposure AUC(0-t) amounted to 1610 ng·h/mL, the clearance amounted to 20.8 mL/min/kg, the half-life is 0.94 h and the Vd was found to be 1.17 L/kg. Also, in data set [1] (PO 10 mg/kg), the exposure AUC(0-t) came to 1760 ng·h/mL, the highest level (Cmax) was 475 ng/mL, the Tmax was found to be 2.2 h and the half-life was 1.5 h.
In the case of `COc1cc2c(cc1O[C@@H]1CCOC1)C[C@@H](C(C)C)n1cc(C(=O)O)c(=O)cc1-2` [Compound I-2, (S)-6-isopropyl-10-methoxy-2-oxo-9-(((R)-tetrahydrofuran-3-yl)oxy)-6,7-dihydro-2H-pyrido[2,1-α]isoquinoline-3-carboxylic acid], in the data set on HBsAg, the EC50 is 1.82 nM. In data set [1], the F amounted to 18.9% and the “PK properties (overall judgement)” value is given as “good PK properties”. Besides, in data set [1] (IV 2 mg/kg), the exposure AUC(0-t) was 1800 ng·h/mL, the clearance was 18.6 mL/min/kg, the half-life was 1.8 h and the Vd worked out at 1.51 L/kg. For the same compound, in data set [1] (PO 10 mg/kg), the AUC(0-t) is 1690 ng·h/mL, the peak level (Cmax) was 437 ng/mL, the Tmax is 1.2 h and the half-life was 1.6 h.
In the case of `COc1cc2c(cc1O[C@H]1C[C@H](OC)C1)C[C@@H](C(C)C)n1cc(C(=O)O)c(=O)cc1-2` [Compound I-5, (S)-6-isopropyl-10-methoxy-9-((1R,3S)-3-methoxycyclobutoxy)-2-oxo-6,7-dihydro-2H-pyrido[2,1-α]isoquinoline-3-carboxylic acid], the concentration giving a half-maximal response (EC50) in the data set on HBsAg was 1.61 nM. In data set [1], the F came to 37.7% and the “PK properties (overall judgement)” value is “good PK properties”. Moreover, in data set [1] (IV 2 mg/kg), the exposure AUC(0-t) was 2940 ng·h/mL, the clearance worked out at 11.3 mL/min/kg, the half-life was 0.98 h and the Vd amounted to 0.858 L/kg. For the same compound, in data set [1] (PO 10 mg/kg), the AUC(0-t) was determined as 5500 ng·h/mL, the peak concentration (Cmax) stood at 1340 ng/mL, the Tmax turned out to be 0.5 h and the half-life was 1.7 h.
Consider `COCC1(COc2cc3c(cc2OC)-c2cc(=O)c(C(=O)O)cn2[C@H](C(C)C)C3)CC1` [Compound I-6, (S)-6-isopropyl-10-methoxy-9-((1-(methoxymethyl)cyclopropyl)methoxy)-2-oxo-6,7-dihydro-2H-pyrido[2,1-α]isoquinoline-3-carboxylic acid], for which, in the data set on HBsAg, the EC50 was found to be 3.15 nM. Moreover, in data set [1], the F came to 45.8% and the “PK properties (overall judgement)” value is given as “good PK properties”. In data set [1] (IV 2 mg/kg), the AUC(0-t) is 1020 ng·h/mL, the clearance was determined as 33.6 mL/min/kg, the half-life is 0.71 h and the Vd came out at 1.74 L/kg. In data set [1] (PO 10 mg/kg), the AUC(0-t) is 2310 ng·h/mL, the concentration peaked (Cmax) at 1490 ng/mL, the time to peak (Tmax) was 0.58 h and the half-life is 1.9 h.
On to `COCCC#Cc1cc2c(cc1OC)-c1cc(=O)c(C(=O)O)cn1[C@H](C(C)C)C2` [Compound I-12, (S)-6-isopropyl-10-methoxy-9-(4-methoxybut-1-yn-1-yl)-2-oxo-6,7-dihydro-2H-pyrido [2,1-α]isoquinoline-3-carboxylic acid], for which the EC50 in the data set on HBsAg came to 3.83 nM.
Still for that read-out and setting: in the case of `COc1cc2c(cc1O[C@H]1C[C@@H](OC)C1)C[C@@H](C(C)C)n1cc(C(=O)O)c(=O)cc1-2` [Compound I-19, (S)-6-isopropyl-10-methoxy-9-((1 s, 3R)-3-methoxycyclobutoxy)-2-oxo-6,7-dihydro-2H-pyrido[2,1-α]isoquinoline-3-carboxylic acid] it was 2.89 nM; in that of `COc1cc2c(cc1OC1CCC1)C[C@@H](C(C)C)n1cc(C(=O)O)c(=O)cc1-2` [Compound I-20, (S)-9-cyclobutoxy-6-isopropyl-10-methoxy-2-oxo-6,7-dihydro-2H-pyrido[2,1-α]isoquinoline-3-carboxylic acid], 2.56 nM.
